The source made the active and inactive calls. No cut-off for these calls is given here.
How the values were obtained:
[1] = Clearance in BALB/c mouse at 1 mg/kg, iv measured during 0.083 to 24 hrs post dose by LC-MS/MS analysis; type: ADME, organism-based; conditions: in vivo, time 0.083-24 hrs
[2] = Toxicity in BALB/c mouse model of BLM-induced systemic sclerosis assessed as effect on body weight at 1 to 5 mg/kg, sc dosed once daily for 4 weeks; type: organism-based; conditions: in vivo, 672 h, dose 1-5 mg/kg
[3] = AUC (0 to infinity) in BALB/c mouse at 1 mg/kg, iv measured during 0.083 to 24 hrs post dose by LC-MS/MS analysis; type: ADME, organism-based; design: route intravenous, time lower 0.083 hrs, dose 1 mg/kg, time upper 24 hrs; conditions: in vivo
[4] = Volume of distribution in BALB/c mouse at 1 mg/kg, iv measured during 0.083 to 24 hrs post dose by LC-MS/MS analysis; type: ADME, organism-based; conditions: in vivo, time 0.083-24 hrs
[5] = target: T1, Cannabinoid receptor 2 (Homo sapiens, UniProt P34972); test: Agonist activity at human CB2 receptor expressed in HEK293 cells after 24 hrs by luciferase reporter gene assay based Tango beta-arrestin recruitment method; type: cell-based
T1 sequence (P34972 whole entry): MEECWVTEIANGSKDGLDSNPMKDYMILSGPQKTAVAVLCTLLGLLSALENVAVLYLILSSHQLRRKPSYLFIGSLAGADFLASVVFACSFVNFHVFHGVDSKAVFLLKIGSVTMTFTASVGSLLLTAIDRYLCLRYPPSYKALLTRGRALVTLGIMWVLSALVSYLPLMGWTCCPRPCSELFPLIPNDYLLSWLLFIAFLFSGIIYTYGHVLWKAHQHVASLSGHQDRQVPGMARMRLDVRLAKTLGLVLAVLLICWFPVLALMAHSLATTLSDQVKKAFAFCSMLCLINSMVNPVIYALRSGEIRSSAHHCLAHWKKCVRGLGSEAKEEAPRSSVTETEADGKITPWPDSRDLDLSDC

[6] = Volume of distribution in BALB/c mouse at 5 mg/kg, po measured during 0.083 to 24 hrs post dose by LC-MS/MS analysis; type: ADME, organism-based; conditions: in vivo, time 0.083-24 hrs
[7] = in vitro; conditions: human, liver microsomes
Description: Stability in human liver microsomes assessed as parent compound remaining at 1 uM incubated for 60 mins in presence of NADPH by LC-MS/MS analysis

[8] = AUC (0 to infinity) in BALB/c mouse at 5 mg/kg, po measured during 0.083 to 24 hrs post dose by LC-MS/MS analysis; type: ADME, organism-based; design: route oral, dose 5 mg/kg, time 0.083-24 hrs; conditions: in vivo
[9] = in vitro; conditions: human, liver microsomes; remark: listed apart in the source
[10] = target: T2, Cannabinoid receptor 1 (Homo sapiens, UniProt P21554); test: Agonist activity at human CB1 receptor expressed in HEK293 cells after 24 hrs by luciferase reporter gene assay based Tango beta-arrestin recruitment method; type: cell-based
T2 sequence (P21554 whole entry): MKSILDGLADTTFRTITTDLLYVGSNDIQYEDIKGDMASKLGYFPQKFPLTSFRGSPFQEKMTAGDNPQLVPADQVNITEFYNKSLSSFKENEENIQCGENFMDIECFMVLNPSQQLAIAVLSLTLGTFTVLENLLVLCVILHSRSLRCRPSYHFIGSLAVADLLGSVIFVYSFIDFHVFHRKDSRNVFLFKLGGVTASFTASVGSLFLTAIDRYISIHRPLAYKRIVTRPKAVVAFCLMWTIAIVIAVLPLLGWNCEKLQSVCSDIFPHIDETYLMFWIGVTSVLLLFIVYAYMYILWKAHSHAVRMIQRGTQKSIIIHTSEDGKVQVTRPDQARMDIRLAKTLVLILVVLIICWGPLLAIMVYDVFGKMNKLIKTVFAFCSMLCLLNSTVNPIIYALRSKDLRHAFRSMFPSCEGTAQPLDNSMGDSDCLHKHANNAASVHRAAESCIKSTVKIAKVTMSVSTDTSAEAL

[11] = target: Prostaglandin E2 receptor EP4 subtype (Homo sapiens) (UniProt P35408); test: Agonist activity at EP4 (unknown origin) at 10 uM
Sequence of Prostaglandin E2 receptor EP4 subtype (Homo sapiens) (P35408 whole entry): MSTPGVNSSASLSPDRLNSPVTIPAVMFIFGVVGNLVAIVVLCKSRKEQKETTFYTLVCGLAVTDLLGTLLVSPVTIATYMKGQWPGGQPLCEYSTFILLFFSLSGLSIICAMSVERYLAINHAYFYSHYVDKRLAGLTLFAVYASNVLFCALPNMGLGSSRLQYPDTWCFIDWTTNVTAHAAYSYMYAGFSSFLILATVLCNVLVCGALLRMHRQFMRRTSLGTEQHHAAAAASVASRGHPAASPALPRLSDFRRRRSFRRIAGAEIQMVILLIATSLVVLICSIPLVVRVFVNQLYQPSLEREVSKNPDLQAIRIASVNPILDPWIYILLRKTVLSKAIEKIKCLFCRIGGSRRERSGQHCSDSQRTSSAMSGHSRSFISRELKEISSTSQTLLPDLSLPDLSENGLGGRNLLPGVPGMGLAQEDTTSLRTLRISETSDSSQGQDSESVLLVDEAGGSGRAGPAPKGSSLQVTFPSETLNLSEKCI

[12] = target: Prostaglandin E2 receptor EP4 subtype (Homo sapiens) (UniProt P35408); test: Antagonist activity at EP4 (unknown origin) at 10 uM
[13] = organism: Homo sapiens; test: Selectivity index, ratio of EC50 for agonist activity at human CB1 receptor expressing CHO cells co-expressing Galpha16 by calcium mobilization assay to EC50 for agonist activity at human CB2 receptor expressing CHO cells co-expressing Galpha16 by calcium mobilization assay
[14] = target: T3, Glucose-dependent insulinotropic receptor (Homo sapiens) (UniProt Q8TDV5); test: Antagonist activity at GPR119 (unknown origin) at 10 uM
T3 sequence (whole entry): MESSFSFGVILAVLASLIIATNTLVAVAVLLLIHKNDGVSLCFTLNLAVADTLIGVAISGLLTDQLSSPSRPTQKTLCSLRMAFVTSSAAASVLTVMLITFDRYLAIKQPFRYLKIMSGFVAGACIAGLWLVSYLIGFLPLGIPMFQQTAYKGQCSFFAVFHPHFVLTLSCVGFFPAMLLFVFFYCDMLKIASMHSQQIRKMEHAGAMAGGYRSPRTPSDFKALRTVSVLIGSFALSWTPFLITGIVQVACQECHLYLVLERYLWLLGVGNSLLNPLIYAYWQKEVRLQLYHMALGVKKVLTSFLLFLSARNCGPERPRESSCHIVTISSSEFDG

[15] = target: T1, Cannabinoid receptor 2; test: Agonist activity at human CB2 receptor expressing CHO cells co-expressing Galpha16 by calcium mobilization assay relative to CP55940; type: functional, cell-based; conditions: filed as agonist
[16] = in vitro; conditions: human, liver
[17] = target: T2, Cannabinoid receptor 1; test: Agonist activity at human CB1 receptor expressing CHO cells co-expressing Galpha16 by calcium mobilization assay; type: functional, cell-based

With `CC(C)(CO)NC(=O)c1cc(C(C)(C)C)n(-c2ccc(C(F)(F)F)cn2)n1` the clearance [1] was 40 mL/min/kg, the Activity [2] was “Non-Toxic” and the AUC(0-inf) [3] was 422 ng·h/mL. It also gave a Vd [4] of 4.5 L/kg, an EC50 [5] of 562 nM and a Vd [6] of 9.2 L/kg. The remaining at 1 h, 1 µM [7] was 64%, the AUC(0-inf) [8] was 1670 ng·h/mL and the microsomal CLint at 1 µM [9] was 12.3 µL/min/mg. The EC50 [10] was greater than 10000 nM, the Activity [11] was “inactive” and the Activity [12] was “inactive”. For the same compound, the Ratio EC50 [13] was greater than 100, the Activity [14] was “inactive” and the Emax [15] was 100%. It also gave a CLint scaled at 1 µM [16] of 11.1 mL/min/kg and an EC50 [17] of 1840 nM.

Reference: ChEMBL document CHEMBL4765487, “From a Designer Drug to the Discovery of Selective Cannabinoid Type 2 Receptor Agonists with Favorable Pharmacokinetic Profiles for the Treatment of Systemic Sclerosis” (J Med Chem, 2021)
